Measured values: patent US20250339569A1, “CARBONIC ANHYDRASE IX LIGANDS” (priority 2021, published 2025)
Like-named read-outs stand apart in the source and are kept apart here.

Experiment: Biodistribution study (SPECT/CT) in SK-RC-52 tumor-bearing mice with or without gelofusine
Assay type: in vivo, NMRI nude mice
Settings: female, NMRI nude, mouse, in vivo, iv, total radioactivity
Experimental: The effect on tumor uptake of prior injection of gelofusine for kidney protection was investigated in mice bearing the SK-RC-52 tumor. Biodistribution was evaluated using in vivo SPECT/CT imaging. Prior to the in vivo study the compounds (ligands) were initially radiolabeled with In-111 and the stability of radiolabeled compounds was evaluated in buffer at three different timepoints.
The study was performed in female NMRI nude mice (approximately 6 weeks of age) from Janvier Labs, France, housed up to 5 mice per cage.
The column was washed with 2 mL water, and then the final product was eluted from the column in EtOH solution (50%) • The sample was formulated in PBS to the final concentration of 150 MBq/mL and 5 nmol/mL.
SK-RC-52 cells were cultured in RPMI 1640 with GlutaMax-I (Thermo Fisher Scientific #61870044) supplemented with 10% fetal bovine serum+1% penicillin/streptomycin, harvested, washed twice in RPMI 1640 and resuspended at 2×10^7 cells/mL in RPMI 1640. HT-29 cells were cultured in McCoy's 5a Medium Modified (Sigma #M9309). For inoculation of HT-29 cells, cells were harvested, washed twice in PBS and resuspended at 5×10^7 cells/mL in PBS. Cells were kept on ice until inoculation.
Animals were anaesthetized (isoflurane, 2-4% in ambient air supplemented with 100% 02) prior to tumor inoculation. The tumor cells (100 μL suspension of either SK-RC-52 cells (2×10^6 cells/animal) or HT-29 cells (5×10^6 cells/animal)) were subcutaneously inoculated in the right flank using a 1-mL syringe equipped with a 27 G needle. Tumor growth and animal weight were measured twice per week. Tumor size was measured by caliper and the volume was estimated using the following formula: 0.52×(length×width^2). When tumor sizes reached 150-250 mm^3, animals were randomized into groups (n=3) of similar average tumor volume and body weight.
Animals were injected intravenously with In-111-labeled compounds (single bolus, 22.3-31.2 MBq, ˜1 nmol ligand, injection volume: 100 μL) in the lateral tail vein using a 29 G syringe.
CT was performed with helical scan, 300 ms exposure, reconstruction resolution of 250 μm. SPECT was performed with multi-pinhole scan and a 30 s frame time. For the quantification of the radioactivity uptake, regions of interests (ROIs) were drawn over the tumor, kidney, liver, and heart (estimate of blood) identified on the images. Uptake was expressed as percent of injected dose per gram tissue (% ID/g).

Structure (SMILES)	tissue uptake (SK-RC-52 model, with gelofusine, 1-2 hours post injection, read-out: peak kidney uptake) [%ID/g]	tissue uptake at 24 h (SK-RC-52 model, with gelofusine, 24 hours post injection, read-out: kidney uptake) [%ID/g]	tissue uptake at 24 h (SK-RC-52 model, without gelofusine, 24 hours post injection, read-out: kidney uptake) [%ID/g]	tissue uptake (SK-RC-52 tumor, 4% gelofusine immediately before, peak at 4 hours (DPI-4452) or 1 hour (DPI-4501), mean±SEM, read-out: peak tumor uptake) [%ID/g]	tissue uptake (summary over tumor models, read-out: peak tumor uptake, typical (conclusion)) [%ID/g]	tissue uptake at 4 h (SK-RC-52, In-111-labeled, 4% gelofusine before, Mean ± SEM, read-out: Blood uptake at 4 h p.i.) [%ID/g]	tissue uptake at 24 h (SK-RC-52, In-111-labeled, 4% gelofusine before, Mean ± SEM, read-out: Kidney uptake at 24 h p.i.) [%ID/g]	tissue uptake at 4 h (SK-RC-52, In-111-labeled, 4% gelofusine before, Mean ± SEM, read-out: Liver uptake at 4 h p.i.) [%ID/g]	tissue uptake (SK-RC-52, In-111-labeled, 4% gelofusine before, Mean ± SEM, read-out: Peak Kidney uptake) [%ID/g]	tissue uptake at 4 h (SK-RC-52, In-111-labeled, no gelofusine, Mean ± SEM, read-out: Blood uptake at 4 h p.i.) [%ID/g]	tissue uptake at 24 h (SK-RC-52, In-111-labeled, no gelofusine, Mean ± SEM, read-out: Kidney uptake at 24 h p.i.) [%ID/g]	tissue uptake at 4 h (SK-RC-52, In-111-labeled, no gelofusine, Mean ± SEM, read-out: Liver uptake at 4 h p.i.) [%ID/g]	tissue uptake (SK-RC-52 tumor mice, In-111-labeled, 4% gelofusine immediately before, Mean ± SEM, N=3, read-out: Peak Tumor Uptake) [%ID/g]
CC(C)C[C@@H]1NC(=O)[C@H](Cc2cccc(NC(=O)CCCS(N)(=O)=O)c2)NC(=O)[C@H](CC(=O)O)NC(=O)[C@H]2CCCN2C(=O)[C@H](CCC(=O)O)NC(=O)[C@@H](NC(=O)[C@H](CCC(N)=O)NC(=O)CN2CCN(C(=O)CN3CCN(CC(=O)O)CCN(CC(=O)O)CCN(CC(=O)O)CC3)CC2)CSCc2cccc(c2)CSC[C@@H](C(N)=O)NC(=O)[C@H](CO)NC(=O)[C@H](Cc2c[nH]c3ccccc23)NC(=O)[C@H]([C@@H](C)O)NC1=O [[^111In]In-DPI-4452, metal not drawn]	1.84 ± 0.14	0.73 ± 0.02	0.95 ± 0.05	13.4 ± 0.39	7	–	–	–	–	–	–	–	–
CC(C)C[C@@H]1NC(=O)[C@H](Cc2cccc(NC(=O)CCCS(N)(=O)=O)c2)NC(=O)[C@H](CC(=O)O)NC(=O)[C@H]2CCCN2C(=O)[C@H](CCC(=O)O)NC(=O)[C@@H](NC(=O)[C@H](CCC(N)=O)NC(=O)CN2CCN(C(=O)CN3CCN(CC(=O)O)CCN(CC(=O)O)CCN(CC(=O)O)CC3)CC2)CSCc2cccc(c2)CSC[C@@H](C(N)=O)NC(=O)[C@H](CO)NC(=O)[C@H](Cc2c[nH]c3ccccc23)NC(=O)[C@H]([C@@H](C)O)NC1=O [DPI-4452, DOTA-PPAc-Gln-[Cys(3MeBn)-Glu-pro-Asp-Af3(Cpsu)-Leu-Thr-Trp-Ser-Cys]-NH2]	–	–	–	–	–	0.03 ± 0.01	0.73 ± 0.2	0.12 ± 0.01	1.84 ± 0.14	0.05 ± 0.01	0.95 ± 0.05	0.18 ± 0.04	13.4 ± 0.39
